The text below walks through data of patent US9834563B2 (Merck Sharp & Dohme Corp., priority 2013, dated 2017).

Common to all, as to format: cell-based
Experiment [1] deals with T1, Human GPR40 (Homo sapiens, UniProt O14842). Put plainly: FLIPR assay: agonist-induced calcium mobilization in GPR40/CHO NFAT BLA cells. Set-up: expressed in transfected cells; host or cells: CHO cells stably expressing NFAT BLA (beta-lactamase). The text has this: (§1) Human and mouse GPR40 stable cell-lines were generated in CHO cells stably expressing NFAT BLA (Beta-lactamase). A human GPR40 stable cell-line was generated in HEK cells stably expressing the aequorin expressing reporter. The expression plasmids were transfected using lipofectamine, LIFE TECHNOLOGIES (Carlsbad, Calif.), following manufacturer's instructions. Stable cell-lines were generated following drug selection.
FLIPR (Fluorimetric Imaging Plate Reader, Molecular Devices) assays were performed to measure agonist-induced calcium mobilization of the stable clones. For the FLIPR assay, one day before assay, GPR40/CHO NFAT BLA cells were seeded into black-wall-clear-bottom 384-well plates (Costar) at 1.4×10e4 cells/20 μL medium/well. The cells were incubated with 20 μl/well of the assay buffer (HBSS, 0.1% BSA, 20 mM HEPES, 2.5 mM probenecid, pH 7.4) containing 8 μM fluo-4, AM, 0.08% pluronic acid at room temperature for 100 minutes. Fluorescence output was measured using FLIPR. Compounds were dissolved in DMSO and diluted to desired concentrations with assay buffer. 13.3 μL/well of compound solution was added. The activities of the compounds in the examples have EC50 (effective concentration of compound to afford 50% of the maximum observed fluorescence) values listed in Table I.
A general note: Calcium flux is commonly read through the fluorescence of an indicator in the cells.

For experiment [2], the target named is T1, Human GPR40. Put plainly: Inositol phosphate turnover (IP1) assay in HEK cells stably expressing human GPR40. Conditions: HEK cells stably expressing human GPR40, 3H-inositol labeling, 60 min compound incubation. As to the method: as §1
(§2) The assay is performed in a 96-well format. HEK cells stably expressing human GPR40 are plated to be 60-80% confluent within 72 h. After 72 h, the plates are aspirated and the cells washed with inositol-free DMEM (ICN). The wash media is replaced with 150 μL of 3H-inositol labeling media (inositol-free media containing 0.4% human albumin or 0.4% mouse albumin, 1× pen/strep antibiotics, glutamine, 25 mM HEPES to which is added 3H-myo-inositol NEN #NET114A 1 mCi/mL, 25 Ci/mmol diluted 1:150 in loading media with a final specific radioactivity of 1 μCi/150 μL). Alternatively, the human and mouse albumin can be added after the overnight labeling step before the addition of LiCl.
The assay is typically run the next day after 18 h labeling. On the day of the assay, 5 μL of 300 mM LiCl is added to all wells and incubated at 37 degrees for 20 min. […] Beads are allowed to settle and the plates are counted in the Wallac MICROBETA instrument. […]

The target of experiment [3] is T1, Human GPR40. The description is as above. Set-up: expressed in transfected cells. Conditions: HEK cells stably expressing human GPR40, 3H-inositol labeling, 60 min compound incubation. Here is the method: as §1, §2
The assay is typically run the next day after 18 h labeling. On the day of the assay, 5 μL of 300 mM LiCl is added to all wells and incubated at 37 degrees for 20 min. 0.75 μL of 200× compounds are added and incubated with the cells for 60 min at 37 degrees. The media is then aspirated off and the assay terminated with the addition of 60 μL 10 mM formic acid. The cells are lysed for 60 min at room temperature. 15-30 μL of lysate is mixed with 70 μL/1 mg YSi SPA beads AMERSHAM (United Kingdom) in clear bottom Isoplates. The plates are shaken for 2 h at room temperature. Beads are allowed to settle and the plates are counted in the Wallac MICROBETA instrument. The activities of the compounds in the examples have EC50 (effective concentration of compound to afford 50% of the maximum observed […]) values listed in Table I.

The structures appear in SMILES notation. pEC50: −log10 of the molar value. Counter-ions that a name gives are not always drawn.

T1 sequence (O14842 whole entry): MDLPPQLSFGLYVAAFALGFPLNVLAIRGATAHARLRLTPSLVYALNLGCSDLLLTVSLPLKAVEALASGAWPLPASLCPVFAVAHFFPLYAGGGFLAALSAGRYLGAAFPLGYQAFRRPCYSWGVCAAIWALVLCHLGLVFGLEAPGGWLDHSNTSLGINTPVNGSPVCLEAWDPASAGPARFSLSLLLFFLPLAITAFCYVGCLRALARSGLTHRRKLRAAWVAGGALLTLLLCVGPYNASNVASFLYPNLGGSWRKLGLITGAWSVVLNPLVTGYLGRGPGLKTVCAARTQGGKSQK

What is called pEC50 is the EC50 on a negative log10 scale, so that one unit is a factor of ten. On to `Cc1nc(N2CCN(S(C)(=O)=O)CC2)ccc1-c1cccc(COc2ccc3c(c2)C[C@H]2[C@H](C(=O)O)[C@@H]32)c1` [Example 48], for which the pEC50 in experiment [1] is 7.12; in experiment [2], 7.41.

With `Cc1nc(N2CCC(CS(C)(=O)=O)CC2)ccc1-c1ccc(F)c(COc2ccc3c(c2)C[C@H]2[C@H](C(=O)O)[C@@H]32)c1` [Example 50, (1S,1aS,6aR)-4-((2-fluoro-5-(2-methyl-6-(4-((methylsulfonyl)methyl)piperidin-1-yl)pyridine-3-yl)benzyl)oxy)-1,1a,6,6a-tetrahydrocyclopropa[a]indene-1-carboxylic acid], the pEC50 in experiment [1] was 7.24; in experiment [3], 7.57.

Take `Cc1nc(OCCCS(C)(=O)=O)ccc1-c1ccc(F)c(COc2ccc3c(c2)C[C@H]2[C@H](C(=O)O)[C@@H]32)c1F` [Example 20, 4-(2,6-Difluoro-3-[6-(3-methanesulfonyl-propoxy)-2-methyl-pyridin-3-yl]-benzyloxy)-1,1a,6,6a-tetrahydro-cyclopropa[a]indene-1-carboxylic acid]: the pEC50 in experiment [1] is 6.75; in experiment [3], 7.29.

As to `Cc1cc(-c2ccc(F)c(COc3ccc4c(c3)C[C@H]3[C@H](C(=O)O)[C@@H]43)c2)c2c(cnn2C)n1` [Example 53, 7-(3-((((1S,1aS,6aR)-1-carboxy-1,1a,6,6a-tetrahydrocyclopropa[a]inden-4-yl)oxy)methyl)-4-fluorophenyl)-1,5-dimethyl-1H-pyrazolo[4,3-b]pyridin-4-ium formate], the pEC50 in experiment [1] is 7.29; in experiment [3] it was 7.41.

As for `Cc1nc(OCC2CCC[C@H](O)[C@@H]2O)ccc1-c1ccc(F)c(COc2ccc3c(c2)C[C@H]2[C@H](C(=O)O)[C@@H]32)c1` (stereo partly drawn) [Example 27, (1S,1aS,6aR)-4-((5-(6-(((2R,3S)-2,3-dihydroxycyclohexyl)methoxy)-2-methylpyridin-3-yl)-2-fluorobenzyl)oxy)-1,1a,6,6a-tetrahydrocyclopropa[a]indene-1-carboxylic acid], the pEC50 in experiment [1] is 7.31; in experiment [3] it was 8.00.

For `Cc1nc(N2[C@@H]3CC[C@H]2CC(O)C3)ccc1-c1ccc(F)c(COc2ccc3c(c2)C[C@H]2[C@H](C(=O)O)[C@@H]32)c1` (stereo partly drawn) [Example 39, (1S,1aS,6aR)-4-((2-fluoro-5-(6-((1R,5S)-3-hydroxy-8-azabicyclo[3.2.1]octan-8-yl)-2-methylpyridin-3-yl)benzyl)oxy)-1,1a,6,6a-tetrahydrocyclopropa[a]indene-1-carboxylic acid], the pEC50 in experiment [1] was 7.32; in experiment [3] it was 7.59.

As to `Cc1nc(OCCCS(C)(=O)=O)ccc1-c1ccc(F)c(COc2ccc3c(c2)C[C@H]2[C@H](C(=O)O)[C@@H]32)c1` [Example 1, (1S,1aS,6aR)-4-[(2-fluoro-5-{2-methyl-6-[3-(methylsulfonyl)propoxy]pyridin-3-yl}benyzyl)oxy]-1,1a,6,6a-tetrahydrocyclopropa[a]indene-1-carboxylic acid], the pEC50 is 7.34 in experiment [1] and 8.14 in experiment [3].

Turning to `Cc1nc(OCCCN2CCCC2=O)ccc1-c1ccc(F)c(COc2ccc3c(c2)C[C@H]2[C@H](C(=O)O)[C@@H]32)c1` [Example 36, (1S,1aS,6aR)-4-((2-fluoro-5-(2-methyl-6-(3-(2-oxopyrrolidin-1-yl)propoxy)pyridin-3-yl)benzyl)oxy)-1,1a,6,6a-tetrahydrocyclo-propa[a]indene-1-carboxylic acid], the figures for the pEC50 in experiment [1] and in experiment [3] were 7.70 and 7.69, respectively.

Consider `CS(=O)(=O)CCCOc1ncc(-c2ccc(F)c(COc3ccc4c(c3)C[C@H]3[C@H](C(=O)O)[C@@H]43)c2)c(C(F)(F)F)n1` [Example 33], for which the pEC50 was 7.51 in experiment [1] and 8.19 in experiment [2].

On to `Cc1nc(OC2CCS(=O)(=O)CC2)ccc1-c1ccc(F)c(C(C)Oc2ccc3c(c2)C[C@H]2[C@H](C(=O)O)[C@@H]32)c1` (stereo partly drawn) [Example 35, (1S,1aS,6aR)-4-(1-(5-(6-((1,1-dioxidotetrahydro-2H-thiopyran-4-yl)oxy)-2-methyl-pyridin-3-yl)-2-fluorophenyl)ethoxy)-1,1a,6,6a-tetrahydrocyclo-propa[a]indene-1-carboxylic acid], for which the pEC50 was 7.11 in experiment [1] and 5.86 in experiment [3].

As to `Cc1nc(OC2CCS(=O)(=O)CC2)ccc1-c1ccc(F)c(COc2ccc3c(c2)C[C@H]2[C@H](C(=O)O)[C@@H]32)c1` [Example 2, (1S,1aS,6aR)-4-[(5-{6-[(1,1-dioxidotetrahydro-2H-thiopyran-4-yl)oxy]-2-methylpyridin-3-yl)-2-fluorobenzyl]oxy}-1,1a,6,6a-tetrahydrocyclopropa[a]indene-1-carboxylic acid], the pEC50 was 7.15 in experiment [1] and 7.73 in experiment [3].

Take `Cc1nc(OCCCCn2nccn2)ccc1-c1ccc(F)c(COc2ccc3c(c2)CC2C(C(=O)O)C32)c1` (stereo not shown) [Example 29, 4-((5-(6-(4-(2H-1,2,3-triazol-2-yl)butoxy)-2-methyl-pyridin-3-yl)-2-fluorobenzyl)oxy)-1,1a,6,6a-tetrahydrocyclo-propa[a]indene-1-carboxylic acid]: the pEC50 in experiment [1] is 7.79; in experiment [3], 7.58.

For the compound `Cc1nc(OCC2CCOCC2)ccc1-c1ccc(F)c(COc2ccc3c(c2)C[C@H]2[C@H](C(=O)O)[C@@H]32)c1` [Example 28, (1S,1aS,6aR)-4-((2-fluoro-5-(2-methyl-6-((tetrahydro-2H-pyran-4-yl)methoxy)pyridin-3-yl)benzyl)oxy)-1,1a,6,6a-tetrahydrocyclopropa[a]indene-1-carboxylic acid], the figures for the pEC50 in experiment [1] and in experiment [3] were 7.73 and 8.10, respectively.

Regarding `Cc1nc(OC[C@@H]2CCCC[C@H]2S(C)(=O)=O)ccc1-c1ccc(F)c(COc2ccc3c(c2)C[C@H]2[C@H](C(=O)O)[C@@H]32)c1` [Example 25, (1S,1aS,6aR)-4-((2-fluoro-5-(2-methyl-6-(((1S,2R)-2-(methylsulfonyl)cyclohexyl)methoxy)pyridin-3-yl)benzyl)oxy)-1,1a,6,6a-tetrahydrocyclopropa[a]indene-1-carboxylic acid], the pEC50 in experiment [1] is 7.17; in experiment [3], 7.41.

In the case of `CS(=O)(=O)CCCOc1cc(C(F)(F)F)c(-c2ccc(F)c(COc3ccc4c(c3)C[C@H]3[C@H](C(=O)O)[C@@H]43)c2)cn1` [Example 32, (1S,1aS,6aR)-4-((2-fluoro-5-(6-(3-(methylsulfonyl)propoxy)-4-(trifluoromethyl)pyridin-3-yl)benzyl)oxy)-1,1a,6,6a-tetrahydrocyclopropa[a]indene-1-carboxylic acid], the pEC50 in experiment [1] is 7.69; in experiment [3] it was 8.30.

Turning to `Cc1nc(N2CCC(c3ccccc3)CC2)nc(C)c1-c1ccc(F)c(COc2ccc3c(c2)C[C@H]2[C@H](C(=O)O)[C@@H]32)c1F` [Example 45, (1S,1aS,6aR)-4-((3-(4,6-dimethyl-2-(4-phenylpiperidin-1-yl)pyrimidin-5-yl)-2,6-difluorobenzyl)oxy)-1,1a,6,6a-tetrahydrocyclopropa[a]indene-1-carboxylic acid], the pEC50 in experiment [1] was 7.53; in experiment [3] it was 6.07.

In the case of `CS(=O)(=O)CCCOc1ncc(-c2ccc(F)c(COc3ccc4c(c3)C[C@H]3[C@H](C(=O)O)[C@@H]43)c2)cc1C(F)(F)F` [Example 54, (1S,1aS,6aR)-4-((2-Fluoro-5-(6-(3-(methylsulfonyl)propoxy)-5-(trifluoromethyl)pyridin-3-yl)benzyl)oxy)-1,1a,6,6a-tetrahydrocyclopropa[a]indene-1-carboxylic acid], the pEC50 in experiment [1] is 7.29; in experiment [3], 6.63.
